Laboratory results as given in patent US5977373A, “Thiadiazolyl and oxadiazolyl phenyl oxazolidinone antibacterial agents” (Pharmacia & Upjohn Company, priority 1998, dated 1999).
In brackets after ≈: the same amount, converted by molar mass.

Tests used:
Type in all cases: cell-based
HI 30063 = assay: MIC for a gram negative bacterial strain (Table 2); conditions: gram negative bacterial strain HI 30063
S. Aureus UC ® 9213 = assay: In vitro minimum inhibitory concentration (MIC) by agar dilution, gram-positive bacteria (Table 1); conditions: Staphylococcus aureus, UC9213
Text: (§1) The oxazolidinone antibacterial agents of this invention have useful activity against a variety of microorganisms. The in vitro activity of compounds of this invention can be assessed by standard testing procedures such as the determination of minimum inhibitory concentration (MIC) by agar dilution as described in "Methods for Dilution Antimicrobial Susceptibility Tests for Bacteria That Grow Aerobically" (MFT) published January 1983 by the National Committee for Clinical Laboratory Standards, 771 East Lancaster Avenue, Villanova, Pa. 19084, USA. The activity of selected compounds of this invention against Staphylococcus aureus and Streptococcus pneumoniae are shown in Table 1.

S. pneumoniae UC ® 9912 = assay: as above; conditions: Streptococcus pneumoniae, UC9912
Text: as §1

MIC (HI 30063) [µg/mL] | MIC (S. Aureus UC ® 9213) [µg/mL] | MIC (S. pneumoniae UC ® 9912) [µg/mL] | Compound
4 (≈ 9.38 µM) | 4 (≈ 9.38 µM) | 0.25 (≈ 0.586 µM) | CC(=O)NC[C@H]1CN(c2ccc(-c3nnc(CC[S+](C)[O-])s3)c(F)c2)C(=O)O1 (stereo partly drawn) [Example 24, (S)-N-[[3-[3-Fluoro-4-[5-[2-(methylsulfinyl)ethyl]-1,3,4-thiadiazol-2-yl]phenyl]-2-oxo-5-oxazolidinyl]methyl]acetamide]
1 (≈ 2.84 µM) | 0.25 (≈ 0.709 µM) | < 0.125 | CC(=S)NC[C@H]1CN(c2ccc(-c3nncs3)c(F)c2)C(=O)O1 [Example 74, (S)-N-[[3-[3-Fluoro-4-(1,3,4-thiadiazol-2-yl)phenyl]-2-oxo-5-oxazolidinyl]methyl]ethanethioamide]
4 (≈ 11 µM) | 1 (≈ 2.74 µM) | < 0.125 | CCC(=O)NC[C@H]1CN(c2ccc(-c3nnc(C)s3)c(F)c2)C(=O)O1 [Example 32, (S)-N-[[3-[3-Fluoro-4-(5-methyl-1,3,4-thiadiazol-2-yl)phenyl]-2-oxo-5-oxazolidinyl]methyl]propanamide]
4 (≈ 11.4 µM) | 1 (≈ 2.85 µM) | 0.25 (≈ 0.714 µM) | CCC(=O)NC[C@H]1CN(c2ccc(-c3nncs3)c(F)c2)C(=O)O1 [Example 71, (S)-N-[[3-[3-Fluoro-4-(1,3,4-thiadiazol-2-yl)phenyl]-2-oxo-5-oxazolidinyl]methyl]propanamide]
4 (≈ 9.04 µM) | 4 (≈ 9.04 µM) | < 0.5 | CC(=O)NC[C@H]1CN(c2ccc(-c3nnc(CCS(C)(=O)=O)s3)c(F)c2)C(=O)O1 [Example 70, (S)-N-[[3-[3-Fluoro-4-[5-[2-(methylsulfonyl)ethyl]-1,3,4-thiadiazol-2-yl]phenyl]-2-oxo-5-oxazolidinyl]methyl]acetamide]
1 (≈ 2.73 µM) | 0.25 (≈ 0.682 µM) | < 0.125 | CCC(=S)NC[C@H]1CN(c2ccc(-c3nncs3)c(F)c2)C(=O)O1 [Example 76, (S)-N-[[3-[3-Fluoro-4-(1,3,4-thiadiazol-2-yl)phenyl]-2-oxo-5-oxazolidinyl]methyl]propanethioamide]
4 (≈ 9.45 µM) | 2 (≈ 4.72 µM) | 0.25 (≈ 0.59 µM) | CC(=O)NC[C@H]1CN(c2ccc(-c3nnc(CCC[N+](=O)[O-])s3)c(F)c2)C(=O)O1 [Example 54, (S)-N-[[3-[3-Fluoro-4-[5-(3-nitropropyl)-1,3,4-thiadiazol-2-yl]phenyl]-2-oxo-5-oxazolidinyl]methyl]acetamide]
2 (≈ 5.47 µM) | 8 (≈ 21.9 µM) | < 0.125 | CC(=O)NC[C@H]1CN(c2ccc(-c3nnc(CN)s3)c(F)c2)C(=O)O1 [Example 6, (S)-N-[[3-[4-[5-(Aminomethyl)-1,3,4-thiadiazol-2-yl]-3-fluorophenyl]-2-oxo-5-oxazolidinyl]methyl]acetamide]
4 (≈ 10.7 µM) | 2 (≈ 5.33 µM) | 0.25 (≈ 0.666 µM) | CC(=O)NC[C@H]1CN(c2ccc(-c3nnc(CC#N)s3)c(F)c2)C(=O)O1 [Example 13, (S)-N-[[3-[4-[5-(Cyanomethyl)-1,3,4-thiadiazol-2-yl]-3-fluorophenyl]-2-oxo-5-oxazolidinyl]methyl]acetamide]
4 (≈ 9.49 µM) | 2 (≈ 4.75 µM) | < 0.125 | CC(=O)NC[C@H]1CN(c2ccc(-c3nnc(CCC(C)=NO)s3)c(F)c2)C(=O)O1 [Example 63, (S)-N-[[3-[3-Fluoro-4-[5-[3-(hydroxyimino)butyl]-1,3,4-thiadiazol-2-yl]phenyl]-2-oxo-5-oxazolidinyl]methyl]acetamide]
2 (≈ 5.08 µM) | 1 (≈ 2.54 µM) | < 0.125 | CC(=O)NC[C@H]1CN(c2ccc(-c3nnc(CC=NO)s3)c(F)c2)C(=O)O1 [Example 64, (S)-N-[[3-[3-Fluoro-4-[5-[2-(hydroxyimino)ethyl]-1,3,4-thiadiazol-2-yl]phenyl]-2-oxo-5-oxazolidinyl]methyl]acetamide]
4 (≈ 11 µM) | 1 (≈ 2.74 µM) | 0.25 (≈ 0.686 µM) | CCc1nnc(-c2ccc(N3C[C@H](CNC(C)=O)OC3=O)cc2F)s1 [Example 4, (S)-N-[[3-[4-(5-Ethyl-1,3,4-thiadiazol-2-yl)-3-fluorophenyl]-2-oxo-5-oxazolidinyl]methyl]acetamide]
< 0.5 | < 0.5 | < 0.5 | CC(=S)NC[C@H]1CN(c2ccc(-c3nnc(CN)s3)c(F)c2)C(=O)O1 [Example 77, N-[((5S)-3-{4-[5-(aminomethyl)-1,3,4-thiadiazol-2-yl]-3-fluorophenyl}-2-oxo-1,3-oxazolidin-5-yl)methyl]ethanethioamide]
2 (≈ 4.51 µM) | 4 (≈ 9.02 µM) | < 0.125 | CC(=O)NC[C@H]1CN(c2ccc(-c3nnc(CNS(C)(=O)=O)s3)c(F)c2)C(=O)O1 [Example 7, (S)-N-[[3-[3-Fluoro-4-[5-[[(methylsulfonyl)amino]methyl]-1,3,4-thiadiazol-2-yl]phenyl]-2-oxo-5-oxazolidinyl]methyl]acetamide]
4 (≈ 10.5 µM) | 2 (≈ 5.26 µM) | 0.25 (≈ 0.657 µM) | CC(=O)NC[C@H]1CN(c2ccc(-c3nnc([C@@H](C)O)s3)c(F)c2)C(=O)O1 [Example 52, [S-(R*,S*)]-N-[[3-[3-Fluoro-4-[5-(1-hydroxyethyl)-1,3,4-thiadiazol-2-yl]phenyl]-2-oxo-5-oxazolidinyl]methyl]acetamide]
4 (≈ 10.5 µM) | 4 (≈ 10.5 µM) | < 0.125 | CC(=O)NC[C@H]1CN(c2ccc(-c3nnc([C@@H](C)N)s3)c(F)c2)C(=O)O1 [Example 56, [S-(R*,S*)]-N-[[3-[4-[5-(1-Aminoethyl)-1,3,4-thiadiazol-2-yl]-3-fluorophenyl]-2-oxo-5-oxazolidinyl]methyl]acetamide]
2 (≈ 5.53 µM) | 0.5 (≈ 1.38 µM) | < 0.125 | CC(=O)NC[C@H]1CN(c2ccc(-c3nnc(C#N)s3)c(F)c2)C(=O)O1 [Example 1, (S)-N-[[3-[4-(5-Cyano-1,3,4-thiadiazol-2-yl)-3-fluorophenyl]-2-oxo-5-oxazolidinyl]methyl]acetamide]
2 (≈ 5.71 µM) | 1 (≈ 2.85 µM) | < 0.125 | CC(=O)NC[C@H]1CN(c2ccc(-c3nnc(C)s3)c(F)c2)C(=O)O1 [Example 3, (S)-N-[[3-[3-Fluoro-4-(5-methyl-1,3,4-thiadiazol-2-yl)phenyl]-2-oxo-5-oxazolidinyl]methyl]acetamide]
4 (≈ 11.9 µM) | 1 (≈ 2.97 µM) | 0.25 (≈ 0.743 µM) | CC(=O)NC[C@H]1CN(c2ccc(-c3nncs3)c(F)c2)C(=O)O1 [Example 9, (S)-N-[[3-[3-Fluoro-4-(1,3,4-thiadiazol-2-yl)phenyl]-2-oxo-5-oxazolidinyl]methyl]acetamide]
– | 16 (≈ 41.2 µM) | 8 (≈ 20.6 µM) | CC(=O)NC[C@H]1CN(c2ccc(-c3noc(C(F)(F)F)n3)c(F)c2)C(=O)O1 [Example 39, (S)-N-[[3-[3-Fluoro-4-[5-(trifluoromethyl)-1,2,4-oxadiazol-3-yl]phenyl]-2-oxo-5-oxazolidinyl]methyl]acetamide]
– | 4 (≈ 10.5 µM) | 0.5 (≈ 1.32 µM) | CC(=O)NC[C@H]1CN(c2ccc(-c3nnc(NC=O)s3)c(F)c2)C(=O)O1 [Example 41, (S)-N-[[3-[3-Fluoro-4-[5-(formylamino)-1,3,4-thiadiazol-2-yl]phenyl]-2-oxo-5-oxazolidinyl]methyl]acetamide]
– | 4 (≈ 9.34 µM) | < 0.5 | CC(=O)NC[C@H]1CN(c2ccc(-c3nnc(CS(C)(=O)=O)s3)c(F)c2)C(=O)O1 [Example 69, (S)-N-[[3-[3-Fluoro-4-[5-[(methylsulfonyl)methyl]-1,3,4-thiadiazol-2-yl]phenyl]-2-oxo-5-oxazolidinyl]methyl]acetamide]
– | 2 (≈ 4.73 µM) | 0.25 (≈ 0.592 µM) | COC(=O)CCc1nnc(-c2ccc(N3C[C@H](CNC(C)=O)OC3=O)cc2F)s1 [Example 18, (S)-Methyl 5-[4-[5-[(acetylamino)methyl]-2-oxo-3-oxazolidinyl]-2-fluorophenyl]-1,3,4-thiadiazole-2-propanoate]
– | 4 (≈ 11.4 µM) | 0.25 (≈ 0.712 µM) | CC(=O)NC[C@H]1CN(c2ccc(-c3nnc(N)s3)c(F)c2)C(=O)O1 [Example 30, (S)-N-[[3-[4-(5-Amino-1,3,4-thiadiazol-2-yl)-3-fluorophenyl]-2-oxo-5-oxazolidinyl]methyl]acetamide]
– | 16 (≈ 40.7 µM) | 0.5 (≈ 1.27 µM) | CC(=O)NC[C@H]1CN(c2ccc(-c3nnc(CCCN)s3)c(F)c2)C(=O)O1 [Example 57, (S)-N-[[3-[4-[5-(3-Aminopropyl)-1,3,4-thiadiazol-2-yl]-3-fluorophenyl]-2-oxo-5-oxazolidinyl]methyl]acetamide]
– | 0.5 (≈ 1.32 µM) | 0.25 (≈ 0.659 µM) | CC(=O)NC[C@H]1CN(c2ccc(-c3nnc(C(N)=O)s3)c(F)c2)C(=O)O1 [Example 2, (S)-5-[4-[5-[(Acetylamino)methyl]-2-oxo-3-oxazolidinyl]-2-fluorophenyl]-1,3,4-thiadiazole-2-carboxamide]
– | 16 (≈ 47.9 µM) | 4 (≈ 12 µM) | CC(=O)NC[C@H]1CN(c2ccc(-c3noc(C)n3)c(F)c2)C(=O)O1 [Example 35, (S)-N-[[3-[3-Fluoro-4-(5-methyl-1,2,4-oxadiazol-3-yl)phenyl]-2-oxo-5-oxazolidinyl]methyl]acetamide]
– | 8 (≈ 19.6 µM) | < 0.125 | CC(=O)NC[C@H]1CN(c2ccc(-c3nnc(CCC(N)=O)s3)c(F)c2)C(=O)O1 [Example 19, (S)-5-[4-[5-[(Acetylamino)methyl]-2-oxo-3-oxazolidinyl]-2-fluorophenyl]-1,3,4-thiadiazole-2-propanamide]
– | 2 (≈ 5.07 µM) | < 0.5 | COCCc1nnc(-c2ccc(N3C[C@H](CNC(C)=O)OC3=O)cc2F)s1 [Example 73, (S)-N-[[3-[3-Fluoro-4-[5-(2-methoxyethyl)-1,3,4-thiadiazol-2-yl]phenyl]-2-oxo-5-oxazolidinyl]methyl]acetamide]
